Source: ChEMBL document CHEMBL1201862, “PubChem BioAssay data set” (2004)
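Values below derive from 48-hour exposures of cells grown in 96-well plates, with endpoints linearly interpolated between the two concentrations bracketing the appropriate inhibition level. At the GI50, growth is halved.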 The source made the active and inactive calls. No stated cut-off is given here; in the data, active = GI50 up to about 1.1 µM and inactive = higher. Peptide text beside a SMILES is read from it.

Experiments:
Assay in all cases: NCI tumour cell line growth inhibition, 48 h
EKVX = tested on: EKVX
HT-29 = tested on: HT-29
K562 = tested on: K562
KM12 = tested on: KM12
LOX IMVI = tested on: LOX IMVI
M14 = tested on: M14
MOLT-4 = tested on: MOLT-4
OVCAR-8 = tested on: OVCAR-8
SK-OV-3 = tested on: SK-OV-3
SN12C = tested on: SN12C
SW-620 = tested on: SW-620
TK-10 = tested on: TK-10
UO-31 = tested on: UO-31
XF498 = tested on: XF498
SNB-75 = tested on: SNB-75
DU-145 = tested on: DU-145
MDA-MB-435 = tested on: MDA-MB-435
MDA-N = tested on: MDA-N
NCI-H522 = tested on: NCI-H522
T47D = tested on: T47D

SMILES	GI50 (EKVX)	GI50 (HT-29)	GI50 (K562)	GI50 (KM12)	GI50 (LOX IMVI)	GI50 (M14)	GI50 (MOLT-4)	GI50 (OVCAR-8)	GI50 (SK-OV-3)	GI50 (SN12C)	GI50 (SW-620)	GI50 (TK-10)	GI50 (UO-31)	GI50 (XF498)	GI50 (SNB-75)	GI50 (DU-145)	GI50 (MDA-MB-435)	GI50 (MDA-N)	GI50 (NCI-H522)	GI50 (T47D)
CCCCOC(=O)NC(=O)c1cn(CCCOC(=O)CCCCCCCCC(=O)OCCCn2cc(C(=O)NC(=O)OCCCC)c(=O)[nH]c2=O)c(=O)[nH]c1=O	> 100 µM (inactive)	> 100 µM (inactive)	> 100 µM (inactive)	> 100 µM (inactive)	> 100 µM (inactive)	> 100 µM (inactive)	> 100 µM (inactive)	> 100 µM (inactive)	> 100 µM (inactive)	> 100 µM (inactive)	> 100 µM (inactive)	> 100 µM (inactive)	> 100 µM (inactive)	> 100 µM (inactive)						
COc1c(I)c(OC)c2c(c1I)O[C@@H]1OCC[C@H]21	74.8 µM (inactive)	39.4 µM (inactive)	41.2 µM (inactive)	29.7 µM (inactive)	32.4 µM (inactive)	24.9 µM (inactive)	20 µM (inactive)	33 µM (inactive)	31.8 µM (inactive)	31.3 µM (inactive)	35 µM (inactive)	40.6 µM (inactive)	22.4 µM (inactive)	30.3 µM (inactive)	27.2 µM (inactive)					
O=C(Nc1ccccc1C(=O)NC(=O)c1ccccc1NC(=O)c1ccccc1)c1ccccc1	8.71 µM (inactive)	2.22 µM (inactive)	4.83 µM (inactive)	1.58 µM (inactive)	2.24 µM (inactive)			5.04 µM (inactive)		4.51 µM (inactive)	4.84 µM (inactive)	10.9 µM (inactive)		1.69 µM (inactive)	2.83 µM (inactive)					
Cc1ccc2c(c1)Nc1cc(C(F)(F)F)ccc1[PH]2=O (centres undefined)	3.78 µM (inactive)	21.9 µM (inactive)	13.1 µM (inactive)	31.5 µM (inactive)	26.1 µM (inactive)	65.2 µM (inactive)	11 µM (inactive)	63.5 µM (inactive)	65.2 µM (inactive)	32.8 µM (inactive)	23.4 µM (inactive)	57.9 µM (inactive)	0.225 µM (active)		11.8 µM (inactive)	45.6 µM (inactive)	37.6 µM (inactive)	41.2 µM (inactive)	21.7 µM (inactive)	27.6 µM (inactive)
Cc1nc2c(=O)n(C)c(=O)nc-2n(CCO)c1C	> 100 µM (inactive)	> 100 µM (inactive)	> 100 µM (inactive)	> 100 µM (inactive)	> 100 µM (inactive)	> 100 µM (inactive)	> 100 µM (inactive)	> 100 µM (inactive)	> 100 µM (inactive)	> 100 µM (inactive)	> 100 µM (inactive)	> 100 µM (inactive)	> 100 µM (inactive)		> 100 µM (inactive)	> 100 µM (inactive)	> 100 µM (inactive)	> 100 µM (inactive)	> 100 µM (inactive)	> 100 µM (inactive)
Cc1ccccc1NC(=S)N/N=C(/c1ccccc1)c1ccccn1	< 0.0381 µM (active)	< 0.0182 µM (active)	< 0.0282 µM (active)	0.0405 µM (active)	< 0.01 µM (active)	< 0.027 µM (active)	< 0.0295 µM (active)	0.0279 µM (active)	0.0128 µM (active)	0.067 µM (active)	< 0.01 µM (active)	< 0.0295 µM (active)	0.0266 µM (active)		0.933 µM (active)	0.838 µM (active)	0.757 µM (active)	0.7 µM (active)	0.0902 µM (active)	< 0.01 µM (active)
O=[N+]([O-])/C(Cl)=C/C(=C1/Nc2ccccc2O1)[N+](=O)[O-]	18.8 µM (inactive)	32.8 µM (inactive)	32.7 µM (inactive)	19.2 µM (inactive)	8.13 µM (inactive)	19.8 µM (inactive)	19.8 µM (inactive)	17.9 µM (inactive)	24 µM (inactive)	36.1 µM (inactive)	32.7 µM (inactive)	44.1 µM (inactive)	15.7 µM (inactive)		14.1 µM (inactive)	19.2 µM (inactive)	15.9 µM (inactive)	18.5 µM (inactive)	13.5 µM (inactive)	32.6 µM (inactive)
Nc1ncc(N)c(NCC2(CO)CC(CCc3ccccc3)C2)n1 (centres undefined)	8.47 µM (inactive)	6.21 µM (inactive)	2.12 µM (inactive)	10 µM (inactive)	3.46 µM (inactive)	11.4 µM (inactive)	0.393 µM (active)	10.5 µM (inactive)	12.2 µM (inactive)	7.67 µM (inactive)	9.98 µM (inactive)	12.5 µM (inactive)	1.19 µM (inactive)		12.6 µM (inactive)	11.2 µM (inactive)	11 µM (inactive)	8.28 µM (inactive)	0.718 µM (active)	1.11 µM (active)
CC1=CCCC(C)(O)C2CC(CCC3(C)OC3CC1)C(C)C(=O)O2 (centres undefined)	> 100 µM (inactive)	> 100 µM (inactive)	> 100 µM (inactive)	> 100 µM (inactive)	> 100 µM (inactive)	> 100 µM (inactive)	43.7 µM (inactive)	> 100 µM (inactive)	> 100 µM (inactive)	> 100 µM (inactive)	> 100 µM (inactive)	> 100 µM (inactive)	> 100 µM (inactive)		> 100 µM (inactive)	> 100 µM (inactive)	> 100 µM (inactive)	> 100 µM (inactive)	> 100 µM (inactive)	> 100 µM (inactive)
Cc1cccc(C[C@@]2(SCc3ccccc3)C(C)(C)[C@@H]3CC[C@@]2(C)C3)n1	17.6 µM (inactive)	15 µM (inactive)	13.1 µM (inactive)	16.4 µM (inactive)	16.6 µM (inactive)	14.7 µM (inactive)	12.6 µM (inactive)	16.5 µM (inactive)	20.4 µM (inactive)	16.3 µM (inactive)	15 µM (inactive)	17.6 µM (inactive)	19.4 µM (inactive)		15.2 µM (inactive)	16.9 µM (inactive)	24 µM (inactive)	24.5 µM (inactive)	14.3 µM (inactive)	7.26 µM (inactive)
COc1ccc2c(c1)[n+]([O-])c(/C(C)=N/NC(=O)c1ccccc1O)c(C)[n+]2[O-]	> 100 µM (inactive)	> 100 µM (inactive)	> 100 µM (inactive)	> 100 µM (inactive)	> 100 µM (inactive)	> 100 µM (inactive)	> 100 µM (inactive)	97.9 µM (inactive)	> 100 µM (inactive)	> 100 µM (inactive)	> 100 µM (inactive)	> 100 µM (inactive)	> 100 µM (inactive)	81.5 µM (inactive)					> 100 µM (inactive)	
CN(Cc1cnc2nc(N)nc(N)c2n1)c1ccc(C(=O)NCCCC(=O)O)cc1	> 29 µM (inactive)	> 100 µM (inactive)	1.2 µM (inactive)	8.38 µM (inactive)	4 µM (inactive)	7.55 µM (inactive)	6.53 µM (inactive)	7.55 µM (inactive)	97.9 µM (inactive)	> 100 µM (inactive)	5.7 µM (inactive)	> 69 µM (inactive)	17.5 µM (inactive)		> 62.7 µM (inactive)	8.49 µM (inactive)	> 25.4 µM (inactive)	7.57 µM (inactive)	16.2 µM (inactive)	> 100 µM (inactive)
Cc1ccc(/C=N/NC2=NCCN2)s1	> 100 µM (inactive)	> 100 µM (inactive)	41 µM (inactive)	> 100 µM (inactive)	> 100 µM (inactive)	> 100 µM (inactive)	> 100 µM (inactive)	> 100 µM (inactive)	> 100 µM (inactive)	> 100 µM (inactive)	> 100 µM (inactive)	> 100 µM (inactive)	44.9 µM (inactive)		> 100 µM (inactive)	> 100 µM (inactive)	> 100 µM (inactive)	> 100 µM (inactive)	> 100 µM (inactive)	> 100 µM (inactive)
CC(=O)NC(CS)C(=O)NC(CO)C(=O)NC(CO)C(=O)NC(Cc1c[nH]c2ccccc12)C(=O)N1CCCC1C(=O)NC(CO)C(=O)NC(Cc1c[nH]c2ccccc12)C(=O)NC(Cc1c[nH]cn1)C(=O)NC(CO)C(=O)NC(Cc1c[nH]c2ccccc12)C(=O)NCC(=O)NCC(=O)NC(C)C(=O)NC(CCC(N)=O)C(=O)NC(CCCCN)C(=O)NC(C)C(=O)NC(CCCNC(=N)N)C(=O)NC(CCCCN)C(N)=O (centres undefined) (Ac-CSSWPSWHSWGGAQKARK-NH2; configuration not given here)	28.3 µM (inactive)	> 50 µM (inactive)	10.3 µM (inactive)	11.6 µM (inactive)	46.3 µM (inactive)	23.2 µM (inactive)	29.8 µM (inactive)	42.6 µM (inactive)	> 50 µM (inactive)	43 µM (inactive)	23.4 µM (inactive)	> 50 µM (inactive)	> 50 µM (inactive)		13.9 µM (inactive)	16.8 µM (inactive)	15.7 µM (inactive)	19.1 µM (inactive)	20.5 µM (inactive)	11 µM (inactive)
O=c1[nH][nH]c(=O)n1Cc1ccccc1	> 100 µM (inactive)	> 100 µM (inactive)	> 100 µM (inactive)	> 100 µM (inactive)	> 100 µM (inactive)	> 100 µM (inactive)	> 100 µM (inactive)	> 100 µM (inactive)	> 100 µM (inactive)	> 100 µM (inactive)	> 100 µM (inactive)	> 100 µM (inactive)	> 100 µM (inactive)		> 100 µM (inactive)	> 100 µM (inactive)	> 100 µM (inactive)	> 100 µM (inactive)	> 100 µM (inactive)	> 100 µM (inactive)
